Results reported in PMC10893631, “Receptor-based pharmacophore modeling, molecular docking, synthesis and biological evaluation of novel VEGFR-2, FGFR-1, and BRAF multi-kinase inhibitors” (BMC Chemistry, 2024).
Where two headings read alike, the source gives them in different places.

Key:
[1] = molecular target: T1, VEGFR-2 (Homo sapiens, UniProt P35968); assay: VEGFR-2 kinase assay kit (BPS), Kinase-Glo Max luminescence; assay type: biochemical; details: VEGFR-2, single dose 10 µM, duplicate, mean ± SD
T1 construct: purchased BPS Biosciences 40325
T1 sequence (P35968 20-1356): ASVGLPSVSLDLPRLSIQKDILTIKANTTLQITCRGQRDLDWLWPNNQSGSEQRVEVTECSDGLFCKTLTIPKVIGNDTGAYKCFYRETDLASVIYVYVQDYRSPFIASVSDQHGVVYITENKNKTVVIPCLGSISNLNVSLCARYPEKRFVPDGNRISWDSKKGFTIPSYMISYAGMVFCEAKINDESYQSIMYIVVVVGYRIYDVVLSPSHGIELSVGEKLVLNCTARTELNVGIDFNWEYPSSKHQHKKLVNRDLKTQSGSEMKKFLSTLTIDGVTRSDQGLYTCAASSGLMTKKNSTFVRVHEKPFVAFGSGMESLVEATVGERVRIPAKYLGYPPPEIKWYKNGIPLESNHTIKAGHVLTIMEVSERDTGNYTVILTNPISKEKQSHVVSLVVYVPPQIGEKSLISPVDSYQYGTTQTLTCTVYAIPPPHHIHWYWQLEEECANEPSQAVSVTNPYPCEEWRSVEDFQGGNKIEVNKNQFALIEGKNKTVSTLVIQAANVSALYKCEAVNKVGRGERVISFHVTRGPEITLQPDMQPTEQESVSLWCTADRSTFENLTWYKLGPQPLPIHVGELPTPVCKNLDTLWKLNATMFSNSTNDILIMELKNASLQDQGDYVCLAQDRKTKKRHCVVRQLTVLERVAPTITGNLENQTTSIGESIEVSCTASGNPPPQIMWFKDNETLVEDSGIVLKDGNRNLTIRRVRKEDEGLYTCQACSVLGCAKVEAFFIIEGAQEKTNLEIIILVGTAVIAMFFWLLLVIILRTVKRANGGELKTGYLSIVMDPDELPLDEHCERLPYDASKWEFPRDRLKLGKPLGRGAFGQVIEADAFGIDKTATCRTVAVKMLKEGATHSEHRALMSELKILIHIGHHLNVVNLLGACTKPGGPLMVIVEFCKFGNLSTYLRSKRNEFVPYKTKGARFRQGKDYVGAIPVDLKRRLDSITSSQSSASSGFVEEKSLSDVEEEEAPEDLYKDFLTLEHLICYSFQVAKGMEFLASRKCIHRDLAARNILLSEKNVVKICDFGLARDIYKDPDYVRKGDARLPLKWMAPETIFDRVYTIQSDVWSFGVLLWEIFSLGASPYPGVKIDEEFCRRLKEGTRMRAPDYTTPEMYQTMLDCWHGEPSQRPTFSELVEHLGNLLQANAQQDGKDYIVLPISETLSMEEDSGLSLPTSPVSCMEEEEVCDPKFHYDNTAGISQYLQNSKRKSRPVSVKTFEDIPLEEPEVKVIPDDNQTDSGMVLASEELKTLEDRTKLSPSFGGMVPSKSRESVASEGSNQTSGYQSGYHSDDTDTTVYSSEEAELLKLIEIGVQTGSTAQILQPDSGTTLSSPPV
Method: 2. Biochemical kinase assay procedure
The inhibitory activity against different kinases was determined using kinase kits […]
from BPS Biosciences and kinase-Glo Max luminescence kinase assay kit (Promega).
The assay was carried out according to the protocol provided by the manufacturer. A stock solution of the synthesized derivatives in 100% DMSO was prepared. Subsequently, the compounds were diluted to 10% DMSO.
A master mixture was prepared according to the number of wells. For VEGFR-2 and FGFR-1 biochemical assays each well include 6 μl of 5x Kinase Buffer 1 + 1 μl of 500 μM ATP + 1 μl of PTK Substrate (Poly-Glu,Tyr 4:1) (10 mg/ml) + 17 μl of distilled water. For BRAF assay each well include 6 μl of 5x Kinase Buffer 1 + 1 μl of ATP (500 μM) + 10 μl of 5X Raf substrate + 8 μl of distilled water. 1x Kinase buffer 1 was prepared by mixing 600 μl of 5x Kinase Buffer 1 with 2400 μl water to give 3 mL. Kinases were thawed on ice and were diluted with 1x Kinase Buffer 1.
To start the biochemical reaction, 25 µL of the master mixture was added to each well in 96 well plate. 5 µL of 10% DMSO was added to positive control wells and blank wells. 5 µL of diluted inhibitor was added to each well labelled with the test inhibitor so that the final concentration of DMSO is 1% in all reactions. Then 20 µL of (1 ng / μl) in case of VEGFR-2 and FGFR-1 or (2.5 ng/μl) in case of BRAF in 1x kinase buffer was added to positive control wells and wells labelled with the inhibitor, while 20 µL 1x kinase buffer 1 was added to the […]
The plate was incubated at 30 °C for 45 min. Subsequently, 50 μl of Kinase-Glo Max luminescence reagent was added to each well and the plate was covered with aluminum foil and incubated at room temperature 15 min. Finally, the luminescence was recorded using multimode microplate reader. Kinase activity assays were performed in duplicate at each […]
The luminescence data were analyzed as follows. The difference between luminescence intensities in the absence of kinase (Lut) and in the presence of kinase (Luc) was defined as 100 % activity (Lut – Luc). Using luminescence signal (Lu) in the presence of the compound, % activity was calculated as: % activity = {(Lut - Lu)/(Lut - Luc)}×100%. The […]
concentration of the test compounds required to reduce the kinase activity by 50% was determined from dose-response curves and recorded as their IC50. […]

[2] = test system: NCI panel of 60 tumor cell lines; assay: NCI SRB growth inhibition, whole panel mean (single dose 10 µM / five-dose); assay type: cell-based, human; details: Homo sapiens; for GI50: mean over NCI cancer cell lines, five-dose
Method: Screening of cytotoxic activity against a panel of sixty human tumor cell lines The selected compounds by NCI were evaluated for their anticancer activity in a two- stage process. […] Then, the output from the single dose screen is reported as a mean graph. […] Assay protocol. […] For a typical screening experiment, cells are inoculated into 96 well microtiter plates in 100 µL at plating densities ranging from 5000 to 40,000 cells/well depending on the doubling time of individual cell lines. […] After 24 h, two plates of each cell line are fixed in situ with TCA, to represent a measurement of the cell population for each cell line at the time of drug addition (Tz). The experimental drugs are solubilized in dimethyl sulfoxide at 400-fold the desired final maximum test concentration and stored frozen prior to use. At the time of drug addition, an aliquot of frozen concentrate is thawed and diluted to twice the desired final maximum test concentration with complete medium containing 50 µg/mL gentamicin. Additional four, 10-fold or ½ log serial dilutions are made to provide a total of five drug concentrations plus control. Aliquots of 100 mL of these different drug dilutions are added to the appropriate microtiter wells already containing […] of medium, resulting in the required final drug concentrations. […] For adherent cells, the assay is terminated by the addition of cold TCA. […] The supernatant is discarded, and the plates are washed five times with tap water and air dried. Sulforhodamine B (SRB) solution ([…]) at 0.4% (w/v) in 1% acetic acid is added to each well, and plates are incubated for 10 min at room temperature. After staining, unbound dye is removed by washing five times with 1% acetic acid and the plates are air dried. […] Using the seven absorbance measurements [time zero, (Tz), control growth, (C), and test growth in the presence of drug at the five concentration levels (Ti)], the percentage growth is calculated at each of the drug concentrations levels. Percentage growth inhibition is calculated as: [(Ti Tz)/(C–Tz)] x 100 for concentrations for which Ti>/=Tz and [(Ti-Tz)/Tz] x 100 for concentrations for which Ti < Tz. Three dose response parameters are calculated for each experimental agent. […] The drug concentration resulting in total growth inhibition (TGI) is calculated from Ti = Tz. […] Values are calculated for each of these three parameters if the level of activity is reached; however, if the effect is not reached or is exceeded, the value for that parameter is expressed as greater or less than the maximum or minimum concentration tested.

[3] = test system: HCC-2998; assay: NCI SRB growth inhibition (single dose 10 µM / five-dose); assay type: cell-based, human; details: Homo sapiens; for inhibition at 10 µM: HCC-2998 (Colon cancer), read-out: GI%; for GI50: HCC-2998, Colon cancer, five-dose
In short: (§1)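 Growth inhibition is derived from seven absorbance readings per agent (Tz, C and five Ti). Where a parameter level is not reached or is exceeded, the value is given as greater or less than the highest or lowest concentration tested.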

[4] = test system: HCT-116; assay: as above; assay type: cell-based, human; details: Homo sapiens, HCT-116; for inhibition at 10 µM: read-out: GI%
In short: as §1

[5] = test system: HOP-62; assay: as above; assay type: cell-based, human; details: Homo sapiens; for inhibition at 10 µM: HOP-62 (Non-small cell lung cancer), read-out: GI%; for GI50: HOP-62, Non-small cell lung cancer, five-dose
In short: as §1

[6] = test system: HOP-92; assay: as above; assay type: cell-based, human; details: Homo sapiens; for inhibition at 10 µM: HOP-92 (Non-small cell lung cancer), read-out: GI%; for GI50: HOP-92, Non-small cell lung cancer, five-dose
In short: as §1

[7] = test system: RPMI-8226; assay: as above; assay type: cell-based, human; details: Homo sapiens; for inhibition at 10 µM: RPMI-8226 (Leukemia), read-out: GI%; for GI50: RPMI-8226, Leukemia, five-dose
In short: as §1

[8] = test system: SNB-75; assay: as above; assay type: cell-based, human; details: Homo sapiens; for inhibition at 10 µM: SNB-75 (CNS cancer), read-out: GI%; for GI50: SNB-75, CNS cancer, five-dose
In short: as §1

[9] = test system: TK-10; assay: as above; assay type: cell-based, human; details: Homo sapiens; for inhibition at 10 µM: TK-10 (Renal cancer), read-out: GI%; for GI50: TK-10, Renal cancer, five-dose
In short: as §1

[10] = test system: UACC-257; assay: as above; assay type: cell-based, human; details: Homo sapiens; for inhibition at 10 µM: UACC-257 (Melanoma), read-out: GI%; for GI50: UACC-257, Melanoma, five-dose
In short: as §1

[11] = mean over NCI 60 cell lines, > 100% = lethal effect, read-out: mean growth inhibition % (GI%)
[12] = mean over NCI panel of 60 tumor cell lines, read-out: Mean growth inhibition %

SMILES | inhibition at 10 µM [1] [%] | inhibition at 10 µM [2, 11] [%] | GI50 [2] [µM] | inhibition at 10 µM [2, 12] [%] | inhibition at 10 µM [3] [%] | GI50 [3] [µM] | GI50 [4] [µM] | inhibition at 10 µM [4] [%] | inhibition at 10 µM [5] [%] | GI50 [5] [µM] | inhibition at 10 µM [6] [%] | GI50 [6] [µM] | inhibition at 10 µM [7] [%] | GI50 [7] [µM] | inhibition at 10 µM [8] [%] | GI50 [8] [µM] | inhibition at 10 µM [9] [%] | GI50 [9] [µM] | inhibition at 10 µM [10] [%] | GI50 [10] [µM]
COc1cc(C=NNC(=O)c2ccc3[nH]c(-c4ccc(Cl)cc4)nc3c2)cc(OC)c1OC [8u, 2-(4-Chlorophenyl)-N'-(3,4,5-trimethoxybenzylidene)-1H-benzo[d]imidazole-5-carbohydrazide] | 80 ± 3.98 | > 100 | 7.98 | > 100 | > 100 | 11.1 | 3.26 | > 100 | > 100 | 4.68 | > 100 | 5.95 | > 100 | 3.21 | > 100 | 1.28 | 62.6 | 28.8 | > 100 | 4.67
COc1ccc(-c2nc3cc(C(=O)NN=Cc4cccc(O)c4)ccc3[nH]2)cc1 [8i, N'-(3-Hydroxybenzylidene)-2-(4-methoxyphenyl)-1H-benzo[d]imidazole-5-carbohydrazide] | 45.2 ± 2.22 | 33.1 |  | 33.1 | 14.9 |  |  | 42.8 | 42 |  | 27 |  | 24.8 |  | 17.8 |  | < 5 |  | 47.4 | 
COc1ccc(-c2nc3cc(C(=O)NN=Cc4cccc(OC)c4O)ccc3[nH]2)cc1 [8k, N'-(2-Hydroxy-3-methoxybenzylidene)-2-(4-methoxyphenyl)-1H-benzo[d]imidazole-5-carbohydrazide] | 69.5 ± 4.37 | > 100 | 7.7 | > 100 | > 100 | 2.33 | 2.9 | > 100 | > 100 | 3.11 | 70.4 |  | > 100 | 2.8 | 91 | 3.05 | 40 | > 100 | > 100 | 3.43
COc1ccc(-c2nc3cc(C(=O)NN=Cc4cc(OC)ccc4OC)ccc3[nH]2)cc1 [8m, N'-(2,5-Dimethoxybenzylidene)-2-(4-methoxyphenyl)-1H-benzo[d]imidazole-5-carbohydrazide] | 6.67 ± 0.08 | 10.9 |  | 10.9 | < 5 |  |  | 22.3 | 19.4 |  | < 5 |  | 76.8 |  | < 5 |  | < 5 |  | 14.3 | 
O=C(NN=Cc1ccccc1O)c1ccc2[nH]c(-c3ccc(Cl)cc3)nc2c1 [8o, 2-(4-Chlorophenyl)-N'-(2-hydroxybenzylidene)-1H-benzo[d]imidazole-5-carbohydrazide] | 22.3 ± 1.95 | > 100 | 5.44 | > 100 | 78 | 1.38 | 1.08 | 98.4 |  | 0.84 | > 100 | > 38.8 | 88.2 | > 38.8 | > 100 | 0.74 | 95 | 5.08 | 42.4 | 7.35
O=C(NN=Cc1cccc(O)c1)c1ccc2[nH]c(-c3ccc(Cl)cc3)nc2c1 [8p, 2-(4-Chlorophenyl)-N'-(3-hydroxybenzylidene)-1H-benzo[d]imidazole-5-carbohydrazide] | 22.3 ± 0.86 | 25.4 |  | 25.4 | 15.9 |  |  | 37.7 | 32.5 |  | 6.79 |  | 56.7 |  | 7.89 |  | < 5 |  | < 5 | 
COc1ccc(OC)c(C=NNC(=O)c2ccc3[nH]c(-c4ccc(Cl)cc4)nc3c2)c1 [8t, 2-(4-Chlorophenyl)-N'-(2,5-dimethoxybenzylidene)-1H-benzo[d]imidazole-5-carbohydrazide] | 34 ± 2.57 | 33.5 |  | 33.5 | 14.6 |  |  | 43.1 | 18.4 |  | 36.6 |  | 62.2 |  | 27.2 |  | 10.9 |  | < 5 | 
COc1cccc(C=NNC(=O)c2ccc3[nH]c(-c4ccc(Cl)cc4)nc3c2)c1O [8r, 2-(4-Chlorophenyl)-N'-(2-hydroxy-3-methoxybenzylidene)-1H-benzo[d]imidazole-5-carbohydrazide] | 25.7 ± 1.87 | > 100 | 3.39 | > 100 | > 100 | 1.48 | 1.19 | > 100 | > 100 | 1.04 | > 100 | 1.25 | > 100 | 2.22 | > 100 |  | > 100 | 6.46 | > 100 | 2.35
